Results: the supplement of paper PMC11061612

Experiments:
Assay in all cases: Bliss excess, mean over the matrix (fraction); higher = more synergy
[1] = tested on: PANC-08-13 (Pancreatic Carcinoma)
Outline: (§1)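 After 24 hours at 37°C and 5% CO2 in 1536-well plates, cells in DMEM/F12 or RPMI plus 10% FBS received two-drug dose matrices for 72 hours. Viability came from CellTiter-Glo 2.0 luminescence and was scaled as inhibition, anchored at 0 by vehicle wells and at 1 by blank wells. Combination Emax is taken as the second-highest inhibition in the matrix, and Bliss excess as the observed combination effect less EA + EB − EA·EB, with EA and EB the single-agent effects.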

[2] = tested on: MOLT-16 (T-Lymphoblastic Leukemia)
Outline: as §1

[3] = tested on: TC-71 (Ewing's Sarcoma)
Outline: as §1

[4] = tested on: ES8 (Ewing's Sarcoma)
Outline: as §1

[5] = tested on: K-562 (Chronic Myelogenous Leukemia)
Outline: as §1

[6] = tested on: LN-18 (Glioblastoma)
Outline: as §1

[7] = tested on: HL-60 (Acute Myeloid Leukemia)
Outline: as §1

[8] = tested on: DND-41 (T-Lymphoblastic Leukemia)
Outline: as §1

[9] = tested on: SR (Other Blood Carcinomas)
Outline: as §1

[10] = tested on: ES1 (Ewing's Sarcoma)
Outline: as §1

[11] = tested on: KYSE-180 (Esophageal Squamous Cell Carcinoma)
Outline: as §1

[12] = tested on: BFTC-905 (Bladder Carcinoma)
Outline: as §1

[13] = tested on: U251 (Low Grade Glioma)
Outline: as §1

[14] = tested on: MS751 (Cervical Carcinoma)
Outline: as §1

[15] = tested on: CHP-212 (Neuroblastoma)
Outline: as §1

[16] = tested on: NCI-H1792 (Lung Adenocarcinoma)
Outline: as §1

[17] = tested on: WIL2-NS (Non-Cancerous)
Outline: as §1

[18] = tested on: GR-ST (B-Lymphoblastic Leukemia)
Outline: as §1

[19] = tested on: KM12 (Colorectal Carcinoma)
Outline: as §1

[20] = tested on: TOV-112D (Ovarian Carcinoma)
Outline: as §1

| SMILES | Bliss excess [1] | Bliss excess [2] | Bliss excess [3] | Bliss excess [4] | Bliss excess [5] | Bliss excess [6] | Bliss excess [7] | Bliss excess [8] | Bliss excess [9] | Bliss excess [10] | Bliss excess [11] | Bliss excess [12] | Bliss excess [13] | Bliss excess [14] | Bliss excess [15] | Bliss excess [16] | Bliss excess [17] | Bliss excess [18] | Bliss excess [19] | Bliss excess [20] |
| --- | --- | --- | --- | --- | --- | --- | --- | --- | --- | --- | --- | --- | --- | --- | --- | --- | --- | --- | --- | --- |
| COc1nnc2ccc(N3CCC(c4ccc(OCCN5CCN(C)C(=O)[C@H]5C)cc4)CC3)nn12 [AZD5153] + Cn1cnc2c(F)c(Nc3ccc(Br)cc3Cl)c(C(=O)NOCCO)cc21 [Selumetinib] (first compound max 1 µM, 7x7, partner max 10 µM) | 0.0924 | -0.0353 | 0.0049 | 0.0303 | -0.001 | 0.0152 | 0.0707 | 0.0425 | -0.0614 | -0.0511 | 0.046 | 0.0113 | -0.0062 | 0.0385 | -0.0285 | 0.0577 | 0.0265 | -0.0578 | -0.0166 | 0.0303 |
| Cc1c2c(nn1C)CSCc1cc(n(C)n1)CSc1cc(c3ccccc3c1)OCCCc1c(C(=O)O)n(C)c3c-2c(Cl)ccc13 [AZD5991] + C1CN(CCC1(C(=O)N[C@@H](CCO)C2=CC=C(C=C2)Cl)N)C3=NC=NC4=C3C=CN4 [Capivasertib] (first compound max 1 µM, 7x7, partner max 3 µM) | -0.0235 | -0.0113 | 0.0256 | 0.0627 | 0.0462 | 0.0306 | -0.0315 | 0.0038 | 0.0447 | 0.0708 | 0.0306 | 0.0226 | 0.0231 | 0.0425 | -0.0066 | -0.019 | -0.0169 | -0.0244 | 0.0136 | -0.0181 |
| Cc1c2c(nn1C)CSCc1cc(n(C)n1)CSc1cc(c3ccccc3c1)OCCCc1c(C(=O)O)n(C)c3c-2c(Cl)ccc13 [AZD5991] + C=CCn1c(=O)c2cnc(Nc3ccc(N4CCN(C)CC4)cc3)nc2n1-c1cccc(C(C)(C)O)n1 [AZD1775] (first compound max 1 µM, partner max 1 µM) | 0.0156 | 0.01 | 0.0478 | 0.0203 | 0.0092 | -0.0087 | -0.0149 | -0.0375 | -0.045 | -0.0524 | 0.0464 | -0.0212 | 0.0025 | -0.0155 | -0.0508 | -0.0453 | 0 | -0.0402 | 0.0031 | -0.017 |
| Cc1c2c(nn1C)CSCc1cc(n(C)n1)CSc1cc(c3ccccc3c1)OCCCc1c(C(=O)O)n(C)c3c-2c(Cl)ccc13 [AZD5991] + CC1(C)CCC(CN2CCN(c3ccc(C(=O)NS(=O)(=O)c4ccc(NCC5CCOCC5)c([N+](=O)[O-])c4)c(Oc4cnc5[nH]ccc5c4)c3)CC2)=C(c2ccc(Cl)cc2)C1 [Venetoclax] (first compound max 1 µM, 7x7, partner max 1 µM) | -0.0411 | 0.063 | 0.0733 | 0.0936 | -0.003 | -0.0167 | 0.0723 | 0.044 | 0.0732 | 0.0817 | 0.0103 | -0.0016 | -0.0068 | 0.0031 | -0.0416 | 0.0248 | -0.0302 | -0.0484 | 0.0015 | 0.0582 |
| Cc1c2c(nn1C)CSCc1cc(n(C)n1)CSc1cc(c3ccccc3c1)OCCCc1c(C(=O)O)n(C)c3c-2c(Cl)ccc13 [AZD5991] + CCN(CCO)CCCOc1ccc2c(Nc3cc(CC(=O)Nc4cccc(F)c4)[nH]n3)ncnc2c1 [AZD2811] (first compound max 1 µM, 7x7, partner max 1 µM) | 0.0135 | -0.0114 | -0.0244 | 0.012 | 0.086 | -0.029 | -0.0001 | 0.0265 | 0.178 | 0.0915 | 0.102 | 0.11 | 0.098 | 0.0367 | -0.0496 | 0.016 | 0.0821 | -0.0742 | 0.058 | 0.0906 |
| Cc1c2c(nn1C)CSCc1cc(n(C)n1)CSc1cc(c3ccccc3c1)OCCCc1c(C(=O)O)n(C)c3c-2c(Cl)ccc13 [AZD5991] + CN(C)CCCOc1ccc(-c2ccc3ncc4c(c3c2)n(C2CCOCC2)c(=O)n4C)cn1 [AZD0156] (first compound max 1 µM, 7x7, partner max 1 µM) | -0.0158 | -0.0302 | -0.001 | 0.0224 | 0.0048 | 0.0444 | 0.006 | 0.0195 | 0.0246 | 0.0092 | 0.0286 | 0.0304 | 0.0334 | 0.0099 | -0.0538 | 0.0004 | -0.0099 | -0.112 | -0.0453 | -0.0265 |
| Cc1c2c(nn1C)CSCc1cc(n(C)n1)CSc1cc(c3ccccc3c1)OCCCc1c(C(=O)O)n(C)c3c-2c(Cl)ccc13 [AZD5991] + C[C@@H]1COCCN1C2=NC(=NC(=C2)C3(CC3)[S@](=N)(=O)C)C4=C5C=CNC5=NC=C4 [AZD6738] (first compound max 1 µM, 7x7, partner max 10 µM) | 0.0337 | 0.0043 | 0.0554 | 0.0029 | -0.0091 | 0.037 | -0.0069 | 0.0215 | 0.0941 | 0.0292 | 0.0821 | 0.0113 | 0.0572 | 0.0565 | 0.0122 | 0.0332 | -0.0025 | -0.129 | 0.0321 | 0.0477 |
| Cc1c2c(nn1C)CSCc1cc(n(C)n1)CSc1cc(c3ccccc3c1)OCCCc1c(C(=O)O)n(C)c3c-2c(Cl)ccc13 [AZD5991] + Cc1cc2ncnn2cc1Nc1ncc2c(n1)n(C1CCOCC1)c(=O)n2C [AZD7648] (first compound max 1 µM, 7x7, partner max 10 µM) | 0.0012 | -0.023 | -0.0745 | 0.0038 | 0.0044 | -0.025 | 0.0014 | -0.0023 | 0.0257 | -0.013 | -0.0126 | -0.0282 | -0.0054 | -0.0396 | 0.0203 | -0.0248 | 0.0039 | -0.149 | -0.0073 | -0.0214 |
| Cc1c2c(nn1C)CSCc1cc(n(C)n1)CSc1cc(c3ccccc3c1)OCCCc1c(C(=O)O)n(C)c3c-2c(Cl)ccc13 [AZD5991] + Cn1cnc2c(F)c(Nc3ccc(Br)cc3Cl)c(C(=O)NOCCO)cc21 [Selumetinib] (first compound max 1 µM, 7x7, partner max 3 µM) | 0.0025 | -0.0205 | 0.093 | -0.0171 | 0.0393 | 0.0745 | 0.0587 | 0.021 | -0.0007 | 0.0123 | 0.0341 | 0.0136 | -0.0024 | 0.067 | -0.0136 | 0.0347 | -0.0263 | -0.0495 | -0.0063 | 0.0038 |
| C[C@@H]1COCCN1c1cc(C2([S@](C)(=N)=O)CC2)nc(-c2ccnc3[nH]ccc23)n1 [AZD6738] + O=C(c1cc(Cc2n[nH]c(=O)c3ccccc23)ccc1F)N1CCN(C(=O)C2CC2)CC1 [Olaparib] (first compound max 10 µM, 7x7, partner max 10 µM) | 0.0021 | -0.0064 | -0.0726 | 0.0543 | -0.0646 | 0.0598 | -0.0275 | -0.0128 | 0.024 | -0.0157 | 0.0762 | 0.0156 | 0.056 | 0.0114 | -0.0095 | 0.0178 | -0.0083 | -0.0471 | 0.0138 | 0.0206 |
| Cc1cc2ncnn2cc1Nc1ncc2c(n1)n(C1CCOCC1)c(=O)n2C [AZD7648] + C=CCn1c(=O)c2cnc(Nc3ccc(N4CCN(C)CC4)cc3)nc2n1-c1cccc(C(C)(C)O)n1 [AZD1775] (first compound max 10 µM, partner max 1 µM) | -0.0266 | 0.0163 | 0.055 | -0.0014 | 0.0017 | 0.0161 | -0.0457 | -0.0109 | -0.0375 | 0.0181 | 0.0302 | 0.022 | -0.014 | 0.0245 | 0.0249 | -0.0274 | -0.0038 | -0.117 | -0.0388 | -0.0325 |
| Cc1cc2ncnn2cc1Nc1ncc2c(n1)n(C1CCOCC1)c(=O)n2C [AZD7648] + CCN(CCO)CCCOc1ccc2c(Nc3cc(CC(=O)Nc4cccc(F)c4)[nH]n3)ncnc2c1 [AZD2811] (first compound max 10 µM, 7x7, partner max 1 µM) | 0.0006 | 0.0058 | -0.0301 | -0.011 | 0.0127 | 0.0208 | -0.0639 | 0.0308 | -0.0225 | 0.0855 | 0.0029 | 0.0469 | -0.0046 | -0.0094 | -0.0162 | 0.0321 | 0.0024 | -0.0705 | 0.004 | 0.0263 |
| Cc1cc2ncnn2cc1Nc1ncc2c(n1)n(C1CCOCC1)c(=O)n2C [AZD7648] + CN(C)CCCOc1ccc(-c2ccc3ncc4c(c3c2)n(C2CCOCC2)c(=O)n4C)cn1 [AZD0156] (first compound max 10 µM, 7x7, partner max 1 µM) | -0.0359 | 0.0841 | 0.0438 | 0.0803 | -0.0026 | 0.0013 | 0.0176 | 0.0251 | 0.0078 | 0.0136 | 0.0126 | 0.0314 | 0.0214 | 0.0217 | 0.0036 | 0.0149 | -0.0264 | -0.0687 | 0.0312 | 0.0307 |
